# Source: PubChem BioAssay AID1259407 (Chemical Carcinogenesis Research Information System (CCRIS), 2018)
# “Also recorded” adds a separate entry of the source. The source made the active and inactive calls. No rule for the calls is given here.
# System: CCRIS mutagenicity, Ames/micronucleus/aberration tests
# Test: CCRIS mutagenicity studies
# [1] = Test System: AMES SALMONELLA TYPHIMURIUM, Strain/Indicator: TA98, Metabolic Activation: NONE, Method: PREINCUBATION
# [2] = Test System: AMES SALMONELLA TYPHIMURIUM, Strain/Indicator: TA100, Metabolic Activation: NONE, Method: PREINCUBATION
smiles,measurement,setting,value
CCOC(=O)Nc1cccc2c1CN(C)CC2c1ccc(Cl)cc1 (configuration not stated),mutagenic call,"Test System: AMES SALMONELLA TYPHIMURIUM, Strain/Indicator: TA98, Metabolic Activation: NONE",inactive; negative
same,mutagenic call,"Test System: AMES SALMONELLA TYPHIMURIUM, Strain/Indicator: TA98, Metabolic Activation: S-9",inactive; negative
same,mutagenic call,"Test System: AMES SALMONELLA TYPHIMURIUM, Strain/Indicator: TA100, Metabolic Activation: NONE",inactive; negative
same,mutagenic call,"Test System: AMES SALMONELLA TYPHIMURIUM, Strain/Indicator: TA100, Metabolic Activation: S-9",inactive; negative
same,mutagenic call,"Test System: AMES SALMONELLA TYPHIMURIUM, Strain/Indicator: TA1535, Metabolic Activation: NONE",inactive; negative
same,mutagenic call,"Test System: AMES SALMONELLA TYPHIMURIUM, Strain/Indicator: TA1535, Metabolic Activation: S-9",inactive; negative
same,mutagenic call,"Test System: AMES SALMONELLA TYPHIMURIUM, Strain/Indicator: TA1537, Metabolic Activation: NONE",inactive; negative
same,mutagenic call,"Test System: AMES SALMONELLA TYPHIMURIUM, Strain/Indicator: TA1537, Metabolic Activation: S-9",inactive; negative
same,mutagenic call,"Test System: AMES SALMONELLA TYPHIMURIUM, Strain/Indicator: TA1538, Metabolic Activation: NONE",inactive; negative
same,mutagenic call,"Test System: AMES SALMONELLA TYPHIMURIUM, Strain/Indicator: TA1538, Metabolic Activation: S-9",inactive; negative
NCCNc1cccc2ccccc12,mutagenic call,"Test System: CHINESE HAMSTER OVARY, Strain/Indicator: CHO-K1-BH4 (HGPRT)/6-THIOGUANINE, Metabolic Activation: NONE",inactive; negative
same,mutagenic call,"Test System: CHINESE HAMSTER OVARY, Strain/Indicator: CHO-K1-BH4 (HGPRT)/6-THIOGUANINE, Metabolic Activation: S-9",inactive; negative
CCCCC(CC)COCCCN (configuration not stated),mutagenic call,"Test System: AMES SALMONELLA TYPHIMURIUM, Strain/Indicator: TA97, Metabolic Activation: HAMSTER, LIVER, S-9, AROCLOR 1254 (10%), Method: PREINCUBATION",inactive; negative
same,mutagenic call,"Test System: AMES SALMONELLA TYPHIMURIUM, Strain/Indicator: TA97, Metabolic Activation: HAMSTER, LIVER, S-9, AROCLOR 1254 (30%), Method: PREINCUBATION",inactive; negative
same,mutagenic call,"Test System: AMES SALMONELLA TYPHIMURIUM, Strain/Indicator: TA97, Metabolic Activation: NONE, Method: PREINCUBATION",inactive; negative
same,mutagenic call,"Test System: AMES SALMONELLA TYPHIMURIUM, Strain/Indicator: TA97, Metabolic Activation: RAT, LIVER, S-9, AROCLOR 1254 (10%), Method: PREINCUBATION",inactive; negative
same,mutagenic call,"Test System: AMES SALMONELLA TYPHIMURIUM, Strain/Indicator: TA97, Metabolic Activation: RAT, LIVER, S-9, AROCLOR 1254 (30%), Method: PREINCUBATION",inactive; negative
same,mutagenic call,"Test System: AMES SALMONELLA TYPHIMURIUM, Strain/Indicator: TA98, Metabolic Activation: HAMSTER, LIVER, S-9, AROCLOR 1254 (10%), Method: PREINCUBATION",inactive; negative
same,mutagenic call,"Test System: AMES SALMONELLA TYPHIMURIUM, Strain/Indicator: TA98, Metabolic Activation: HAMSTER, LIVER, S-9, AROCLOR 1254 (30%), Method: PREINCUBATION",inactive; negative
same,mutagenic call,[1],inactive; negative
same,mutagenic call,"Test System: AMES SALMONELLA TYPHIMURIUM, Strain/Indicator: TA98, Metabolic Activation: RAT, LIVER, S-9, AROCLOR 1254 (10%), Method: PREINCUBATION",inactive; negative
same,mutagenic call,"Test System: AMES SALMONELLA TYPHIMURIUM, Strain/Indicator: TA98, Metabolic Activation: RAT, LIVER, S-9, AROCLOR 1254 (30%), Method: PREINCUBATION",inactive; negative
same,mutagenic call,"Test System: AMES SALMONELLA TYPHIMURIUM, Strain/Indicator: TA100, Metabolic Activation: HAMSTER, LIVER, S-9, AROCLOR 1254 (10%), Method: PREINCUBATION",inactive; negative
same,mutagenic call,"Test System: AMES SALMONELLA TYPHIMURIUM, Strain/Indicator: TA100, Metabolic Activation: HAMSTER, LIVER, S-9, AROCLOR 1254 (30%), Method: PREINCUBATION",inactive; negative
same,mutagenic call,[2],inactive; negative
same,mutagenic call,"Test System: AMES SALMONELLA TYPHIMURIUM, Strain/Indicator: TA100, Metabolic Activation: RAT, LIVER, S-9, AROCLOR 1254 (10%), Method: PREINCUBATION",inactive; negative
same,mutagenic call,"Test System: AMES SALMONELLA TYPHIMURIUM, Strain/Indicator: TA100, Metabolic Activation: RAT, LIVER, S-9, AROCLOR 1254 (30%), Method: PREINCUBATION",inactive; negative
same,mutagenic call,"Test System: AMES SALMONELLA TYPHIMURIUM, Strain/Indicator: TA1535, Metabolic Activation: HAMSTER, LIVER, S-9, AROCLOR 1254 (10%), Method: PREINCUBATION",inactive; negative
same,mutagenic call,"Test System: AMES SALMONELLA TYPHIMURIUM, Strain/Indicator: TA1535, Metabolic Activation: HAMSTER, LIVER, S-9, AROCLOR 1254 (30%), Method: PREINCUBATION",inactive; negative
same,mutagenic call,"Test System: AMES SALMONELLA TYPHIMURIUM, Strain/Indicator: TA1535, Metabolic Activation: NONE, Method: PREINCUBATION",inactive; negative
same,mutagenic call,"Test System: AMES SALMONELLA TYPHIMURIUM, Strain/Indicator: TA1535, Metabolic Activation: RAT, LIVER, S-9, AROCLOR 1254 (10%), Method: PREINCUBATION",inactive; negative
same,mutagenic call,"Test System: AMES SALMONELLA TYPHIMURIUM, Strain/Indicator: TA1535, Metabolic Activation: RAT, LIVER, S-9, AROCLOR 1254 (30%), Method: PREINCUBATION",inactive; negative
C[C@H](CCC(=O)NCC(=O)O)[C@H]1CC[C@H]2[C@@H]3[C@@H](O)C[C@@H]4C[C@H](O)CC[C@]4(C)[C@H]3CC[C@]12C,mutagenic call,"Test System: Ames Salmonella typhimurium, Strain/Indicator: TA98, Metabolic Activation: Rat, Liver, S-9, Aroclor 1254, Method: Plate incorporation",inactive; negative
O=NN1CCSC1[C@H](O)[C@@H](O)[C@@H](O)CO (some centres not stated),mutagenic call,[1],inactive; negative
same,mutagenic call,"Test System: AMES SALMONELLA TYPHIMURIUM, Strain/Indicator: TA98, Metabolic Activation: NONE, Method: STANDARD PLATE",inactive; negative
same,mutagenic call,"Test System: AMES SALMONELLA TYPHIMURIUM, Strain/Indicator: TA98, Metabolic Activation: RAT, LIVER, S-9, AROCLOR 1254, Method: PREINCUBATION",inactive; negative
same,mutagenic call,"Test System: AMES SALMONELLA TYPHIMURIUM, Strain/Indicator: TA98, Metabolic Activation: RAT, LIVER, S-9, AROCLOR 1254, Method: STANDARD PLATE",inactive; negative
same,mutagenic call,[2],inactive; negative
same,mutagenic call,"Test System: AMES SALMONELLA TYPHIMURIUM, Strain/Indicator: TA100, Metabolic Activation: NONE, Method: STANDARD PLATE",inactive; negative
same,mutagenic call,"Test System: AMES SALMONELLA TYPHIMURIUM, Strain/Indicator: TA100, Metabolic Activation: RAT, LIVER, S-9, AROCLOR 1254, Method: PREINCUBATION",inactive; negative
same,mutagenic call,"Test System: AMES SALMONELLA TYPHIMURIUM, Strain/Indicator: TA100, Metabolic Activation: RAT, LIVER, S-9, AROCLOR 1254, Method: STANDARD PLATE",inactive; negative
CCSC(C)CC1CC(=O)C(/C(CC)=N/OC/C=C/Cl)=C(O)C1 (configuration not stated),mutagenic call,"End Point: In vitro chromosomal aberrations, Test System: Chinese hamster ovary (CHO) cells, Metabolic Activation: None",inactive; negative (purity 96.1%); also recorded: active; positive (structural changes; purity 81.4%)
same,mutagenic call,"End Point: In vitro chromosomal aberrations, Test System: Chinese hamster ovary (CHO) cells, Metabolic Activation: Rat, liver, S-9, Aroclor 1254",inactive; negative (purity 96.1%)
same,mutagenic call,"End Point: In vivo chromosomal aberrations, Test System: Bone marrow, Species: Rat, Strain/Sex: Sprague-Dawley/Female, Route: Gavage",inactive; negative (purity 83.3%)
same,mutagenic call,"End Point: In vivo chromosomal aberrations, Test System: Bone marrow, Species: Rat, Strain/Sex: Sprague-Dawley/Male, Route: Gavage",inactive; negative (purity 83.3%)
same,mutagenic call,"Test System: Ames Salmonella typhimurium, Strain/Indicator: TA98, Metabolic Activation: None, Method: Standard Plate",inactive; negative (purity 83.3%)
same,mutagenic call,"Test System: Ames Salmonella typhimurium, Strain/Indicator: TA98, Metabolic Activation: Rat, liver, S-9, Aroclor, Method: Standard Plate",inactive; negative (purity 83.3%)
same,mutagenic call,"Test System: Ames Salmonella typhimurium, Strain/Indicator: TA100, Metabolic Activation: None, Method: Standard Plate",inactive; negative (purity 83.3%)
same,mutagenic call,"Test System: Ames Salmonella typhimurium, Strain/Indicator: TA100, Metabolic Activation: Rat, liver, S-9, Aroclor, Method: Standard Plate",inactive; negative (purity 83.3%)
same,mutagenic call,"Test System: Ames Salmonella typhimurium, Strain/Indicator: TA1535, Metabolic Activation: None, Method: Standard Plate",inactive; negative (purity 83.3%)
same,mutagenic call,"Test System: Ames Salmonella typhimurium, Strain/Indicator: TA1535, Metabolic Activation: Rat, liver, S-9, Aroclor, Method: Standard Plate",inactive; negative (purity 83.3%)
same,mutagenic call,"Test System: Ames Salmonella typhimurium, Strain/Indicator: TA1537, Metabolic Activation: None, Method: Standard Plate",inactive; negative (purity 83.3%)
same,mutagenic call,"Test System: Ames Salmonella typhimurium, Strain/Indicator: TA1537, Metabolic Activation: Rat, liver, S-9, Aroclor, Method: Standard Plate",inactive; negative (purity 83.3%)
same,mutagenic call,"Test System: E. coli, Strain/Indicator: WP2uvrA, Metabolic Activation: None, Method: Standard Plate",inactive; negative (purity 83.3%)
same,mutagenic call,"Test System: E. coli, Strain/Indicator: WP2uvrA, Metabolic Activation: Rat, liver, S-9, Aroclor, Method: Standard Plate",inactive; negative (purity 83.3%)
same,mutagenic call,"Test System: UDS Mouse hepatocytes, Strain/Indicator: Thymidine incorporation, Metabolic Activation: Activation in whole animal, Method: Autoradiography",inactive; negative (purity 83.3%)
O=NN(CCCl)C(=O)NCCO,mutagenic call,"Test System: AMES SALMONELLA TYPHIMURIUM, Strain/Indicator: TA1535, Metabolic Activation: NONE, Method: STANDARD PLATE",active; positive
